Measured values as given in patent publication US20260132132A1, “3A,4,5,6-TETRAHYDRO-1 H-PYRAZOLO[3,4-C]PYRIDIN-7(7AH)-ONE DERIVATIVES AS FACTOR XIIA INHIBITORS” (KALVISTA PHARMACEUTICALS LIMITED, priority 2022, published 2026).
pIC50: −log10 of the molar value.

How the values were obtained:
Format in all cases: biochemical
FXa = FXa (Homo sapiens, UniProt P00742); assay: Related protease inhibition: FXa, fluorogenic substrate; conditions: fluorogenic substrate at Km, 25° C.; H1-H3 = % activity at 40 μM
Chain of FXa (P00742 235-488 limits assumed): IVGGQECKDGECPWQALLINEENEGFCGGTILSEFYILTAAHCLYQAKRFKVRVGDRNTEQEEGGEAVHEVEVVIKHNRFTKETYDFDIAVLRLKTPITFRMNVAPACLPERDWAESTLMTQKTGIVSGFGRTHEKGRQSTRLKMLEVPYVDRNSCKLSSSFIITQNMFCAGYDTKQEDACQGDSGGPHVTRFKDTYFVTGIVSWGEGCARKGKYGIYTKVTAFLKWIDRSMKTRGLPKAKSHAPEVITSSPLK
Chain of FXa (P00742 41-179 partner limits assumed): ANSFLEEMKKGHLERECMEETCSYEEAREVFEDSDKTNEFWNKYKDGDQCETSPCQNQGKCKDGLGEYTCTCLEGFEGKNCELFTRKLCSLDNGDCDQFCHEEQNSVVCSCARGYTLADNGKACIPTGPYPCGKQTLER
Experimental: (§1) Human serine protease enzyme Plasma Kallikrein, KLK1, FXa, Plasmin, Thrombin and Trypsin were assayed for enzymatic activity using an appropriate fluorogenic substrate at Km concentration, FXIa at fixed substrate concentration of 100 μM and various concentrations of the test compound.

Thrombin = Thrombin (Homo sapiens, UniProt P00734); assay: Related protease inhibition: Thrombin, fluorogenic substrate; conditions: fluorogenic substrate at Km, 25° C., H1-H3 = % activity at 40 μM
Experimental: as §1

[1] = biological target: T1, Human Factor XIIa (hFXIIa) (Homo sapiens, UniProt P00748); assay: Determination of Human Factor XIIa (hFXIIa) inhibition, fluorogenic substrate IC50 assay; conditions: fluorogenic substrate H-DPro-Phe-Arg-AFC at Km, 25° C., read-out: Human FXIIa IC50
T1 construct: purchased Enzyme Research Laboratories
T1 sequence (P00748 373-615 limits assumed): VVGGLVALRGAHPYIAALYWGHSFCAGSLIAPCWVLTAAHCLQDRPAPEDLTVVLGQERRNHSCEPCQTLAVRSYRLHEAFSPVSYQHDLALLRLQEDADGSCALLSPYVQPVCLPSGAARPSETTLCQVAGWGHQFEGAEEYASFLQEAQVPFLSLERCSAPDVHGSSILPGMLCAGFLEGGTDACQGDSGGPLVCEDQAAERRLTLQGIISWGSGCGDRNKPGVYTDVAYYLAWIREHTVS
T1 sequence (P00748 20-372 partner limits assumed): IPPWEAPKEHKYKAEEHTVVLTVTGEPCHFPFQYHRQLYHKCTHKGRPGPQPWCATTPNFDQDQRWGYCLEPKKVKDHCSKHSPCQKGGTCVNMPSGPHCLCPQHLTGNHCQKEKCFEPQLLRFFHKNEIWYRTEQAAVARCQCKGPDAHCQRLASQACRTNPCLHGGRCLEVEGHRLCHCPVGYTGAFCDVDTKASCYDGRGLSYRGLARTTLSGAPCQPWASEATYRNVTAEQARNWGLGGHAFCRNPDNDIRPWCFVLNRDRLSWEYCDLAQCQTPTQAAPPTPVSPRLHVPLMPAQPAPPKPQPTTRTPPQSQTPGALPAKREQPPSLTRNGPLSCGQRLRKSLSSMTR
Experimental: Determination of Human Factor XIIa (hFXIIa) inhibition
The Km for the cleavage of the substrate by hFXIIa was determined by standard transformation of the Michaelis-Menten equation, with subsequent inhibition assays performed at substrate Km concentration.

| Structure (SMILES) | pIC50 (FXa) | activity at 40 µM (Thrombin; read-out: IC50 (human thrombin) nM) [%] | pIC50 [1] | pIC50 (Thrombin) |
| --- | --- | --- | --- | --- |
| CCNC(=O)c1nn(-c2cccc(Cl)c2)c2c1CCN(c1cccc(N3C(=O)C[C@@H]4C[C@@H]43)c1)C2=O (single isomer, unassigned) [Example 1408, 1-(3-Chlorophenyl)-N-ethyl-7-oxo-6-(3-((1S*,5S*)-3-oxo-2-azabicyclo[3.1.0]hexan-2-yl)phenyl)-4,5,6,7-tetrahydro-1H-pyrazolo[3,4-c]pyridine-3-carboxamide] | 4.40 to 5.00 | 20 to 80 | 6.00 to 6.52 | – |
| CN1CCc2ccc(N3CCc4c(C(=O)NCC5CCOCC5)nn(-c5cccc(Cl)c5)c4C3=O)cc2C1 [Example 1027, 1-(3-chlorophenyl)-6-(2-methyl-1,2,3,4-tetrahydroisoquinolin-7-yl)-7-oxo-N-((tetrahydro-2H-pyran-4-yl)methyl)-4,5,6,7-tetrahydro-1H-pyrazolo[3,4-c]pyridine-3-carboxamide] | 5.00 to 5.52 | – | 6.00 to 6.52 | < 4.00 |
| CC(C)N1CCc2ccc(N3CCc4c(C(=O)NCC5CC5)nn(-c5cccc(Cl)c5)c4C3=O)cc2C1 [Example 1035, 1-(3-chlorophenyl)-N-(cyclopropylmethyl)-6-(2-isopropyl-1,2,3,4-tetrahydroisoquinolin-7-yl)-7-oxo-4,5,6,7-tetrahydro-1H-pyrazolo[3,4-c]pyridine-3-carboxamide] | 4.40 to 5.00 | – | 6.52 to 7.00 | < 4.00 |
| COCCN1CCc2ccc(N3CCc4c(C(=O)NCC5CC5)nn(-c5cccc(Cl)c5)c4C3=O)cc2C1 [Example 1037, 1-(3-chlorophenyl)-N-(cyclopropylmethyl)-6-(2-(2-methoxyethyl)-1,2,3,4-tetrahydroisoquinolin-7-yl)-7-oxo-4,5,6,7-tetrahydro-1H-pyrazolo[3,4-c]pyridine-3-carboxamide] | < 4.00 | – | 7.00 to 8.00 | < 4.00 |
| CN1CCc2ccc(N3CCc4c(C(=O)NC5CCCC5)nn(-c5cccc(Cl)c5)c4C3=O)cc2C1 [Example 1044, 1-(3-chlorophenyl)-N-cyclopentyl-6-(2-methyl-1,2,3,4-tetrahydroisoquinolin-7-yl)-7-oxo-4,5,6,7-tetrahydro-1H-pyrazolo[3,4-c]pyridine-3-carboxamide] | 5.00 to 5.52 | – | 6.52 to 7.00 | < 4.00 |
| Cc1cc(CNC(=O)c2nn(-c3cccc(Cl)c3)c3c2CCN(c2ccc4c(c2)C(=O)N(CC(F)(F)F)CCO4)C3=O)n[nH]1 [Example 1378, 1-(3-chlorophenyl)-N-((5-methyl-1H-pyrazol-3-yl)methyl)-7-oxo-6-(5-oxo-4-(2,2,2-trifluoroethyl)-2,3,4,5-tetrahydrobenzo[f][1,4]oxazepin-7-yl)-4,5,6,7-tetrahydro-1H-pyrazolo[3,4-c]pyridine-3-carboxamide] | 4.40 to 5.00 | – | 7.00 to 8.00 | 4.40 to 5.00 |
| Cc1nc2c(C#N)nn(-c3cccc(Cl)c3)c2c(=O)n1-c1ccc2c(c1)CN(CCO)CC2 [Example 3012, 1-(3-chlorophenyl)-6-(2-(2-hydroxyethyl)-1,2,3,4-tetrahydroisoquinolin-7-yl)-5-methyl-7-oxo-6,7-dihydro-1H-pyrazolo[4,3-d]pyrimidine-3-carbonitrile] | 5.52 to 6.00 | – | 6.52 to 7.00 | – |
| N#Cc1nn(-c2cccc(Cl)c2)c2c(=O)n(-c3ccc4c(c3)CN(CCO)CC4)cnc12 [Example 3013, 1-(3-chlorophenyl)-6-(2-(2-hydroxyethyl)-1,2,3,4-tetrahydroisoquinolin-7-yl)-7-oxo-6,7-dihydro-1H-pyrazolo[4,3-d]pyrimidine-3-carbonitrile] | 6.00 to 6.52 | – | 6.52 to 7.00 | – |
| Cc1nc2c(C(=O)NCC3CC3)nn(-c3cccc(Cl)c3)c2c(=O)n1-c1ccc2c(c1)C(=O)N(C)CC2 [Example 3014, 1-(3-chlorophenyl)-N-(cyclopropylmethyl)-5-methyl-6-(2-methyl-1-oxo-1,2,3,4-tetrahydroisoquinolin-7-yl)-7-oxo-6,7-dihydro-1H-pyrazolo[4,3-d]pyrimidine-3-carboxamide] | < 4.40 | – | 6.52 to 7.00 | – |
| Cc1cc(CNC(=O)c2nn(-c3cccc(Cl)c3)c3c(=O)n(-c4ccc5c(c4)C(=O)N(CCO)CC5)c(C)nc23)nn1C [Example 3015, 1-(3-chlorophenyl)-N-((1,5-dimethyl-1H-pyrazol-3-yl)methyl)-6-(2-(2-hydroxyethyl)-1-oxo-1,2,3,4-tetrahydroisoquinolin-7-yl)-5-methyl-7-oxo-6,7-dihydro-1H-pyrazolo[4,3-d]pyrimidine-3-carboxamide] | < 4.40 | – | 7.00 to 8.00 | – |
| Cc1nc2c(C(=O)NCC3CC3)nn(-c3cccc(Cl)c3)c2c(=O)n1-c1ccc2c(c1)C(=O)N(CCO)CC2 [Example 3016, 1-(3-chlorophenyl)-N-(cyclopropylmethyl)-6-(2-(2-hydroxyethyl)-1-oxo-1,2,3,4-tetrahydroisoquinolin-7-yl)-5-methyl-7-oxo-6,7-dihydro-1H-pyrazolo[4,3-d]pyrimidine-3-carboxamide] | < 4.40 | – | 6.52 to 7.00 | – |
| Cc1ccncc1CNC(=O)c1nn(-c2cccc(Cl)c2)c2c(=O)n(-c3ccc4c(c3)C(=O)N(CCO)CC4)c(C)nc12 [Example 3017, 1-(3-chlorophenyl)-6-(2-(2-hydroxyethyl)-1-oxo-1,2,3,4-tetrahydroisoquinolin-7-yl)-5-methyl-N-((4-methylpyridin-3-yl)methyl)-7-oxo-6,7-dihydro-1H-pyrazolo[4,3-d]pyrimidine-3-carboxamide] | 4.40 to 5.00 | – | 7.00 to 8.00 | – |
| Cc1nc2c(C(=O)O)nn(-c3cccc(Cl)c3)c2c(=O)n1-c1ccc2c(c1)C(=O)N(CCO)CC2 [Example 3018, 1-(3-chlorophenyl)-6-(2-(2-hydroxyethyl)-1-oxo-1,2,3,4-tetrahydroisoquinolin-7-yl)-5-methyl-7-oxo-6,7-dihydro-1H-pyrazolo[4,3-d]pyrimidine-3-carboxylic acid] | 4.40 to 5.00 | – | 5.52 to 6.00 | – |
| CCOC(=O)c1nn(-c2cccc(Cl)c2)c2c(=O)n(-c3ccc4c(c3)C(=O)N(CCO)CC4)c(C)nc12 [Example 3019, ethyl 1-(3-chlorophenyl)-6-(2-(2-hydroxyethyl)-1-oxo-1,2,3,4-tetrahydroisoquinolin-7-yl)-5-methyl-7-oxo-6,7-dihydro-1H-pyrazolo[4,3-d]pyrimidine-3-carboxylate] | 5.00 to 5.52 | – | 6.52 to 7.00 | – |
| Cc1cc(CNC(=O)c2nn(-c3cccc(Cl)c3)c3c(=O)n(-c4ccc5c(c4)C(=O)N(C)CC5)c(C)nc23)n[nH]1 [Example 3020, 1-(3-chlorophenyl)-5-methyl-6-(2-methyl-1-oxo-1,2,3,4-tetrahydroisoquinolin-7-yl)-N-((5-methyl-1H-pyrazol-3-yl)methyl)-7-oxo-6,7-dihydro-1H-pyrazolo[4,3-d]pyrimidine-3-carboxamide] | 4.40 to 5.00 | – | 6.52 to 7.00 | – |
| Cc1cc(CNC(=O)c2nn(-c3cccc(Cl)c3)c3c(=O)n(-c4ccc5c(c4)C(=O)N(C)CC5)c(C)nc23)nn1C [Example 3021, 1-(3-chlorophenyl)-N-((1,5-dimethyl-1H-pyrazol-3-yl)methyl)-5-methyl-6-(2-methyl-1-oxo-1,2,3,4-tetrahydroisoquinolin-7-yl)-7-oxo-6,7-dihydro-1H-pyrazolo[4,3-d]pyrimidine-3-carboxamide] | 4.40 to 5.00 | – | 6.52 to 7.00 | – |
| CCNC(=O)c1nn(-c2cccc(Cl)c2)c2c(=O)n(-c3ccc4c(c3)C(=O)N(C)CC4)c(C)nc12 [Example 3022, 1-(3-chlorophenyl)-N-ethyl-5-methyl-6-(2-methyl-1-oxo-1,2,3,4-tetrahydroisoquinolin-7-yl)-7-oxo-6,7-dihydro-1H-pyrazolo[4,3-d]pyrimidine-3-carboxamide] | 4.40 to 5.00 | – | 6.00 to 6.52 | – |
| Cc1cc(CNC(=O)c2nn(-c3cccc(Cl)c3)c3c2CN(c2ccc4c(c2)CN(CCO)CC4)C3=O)nn1C [Example 4001, 1-(3-Chlorophenyl)-N-[(1,5-dimethylpyrazol-3-yl)methyl]-5-[2-(2-hydroxyethyl)-3,4-dihydro-1H-isoquinolin-7-yl]-6-oxo-4H-pyrrolo[3,4-c]pyrazole-3-carboxamide] | < 4.40 | – | 5.00 to 5.52 | – |
| O=C(Cn1nc(-c2cccc(Cl)c2)c2c1CCN(c1ccc3c(c1)CN(CCO)CC3)C2=O)NCC1CC1 [Example 4002, 2-[3-(3-Chlorophenyl)-5-[2-(2-hydroxyethyl)-3,4-dihydro-1H-isoquinolin-7-yl]-4-oxo-6,7-dihydropyrazolo[4,3-c]pyridin-1-yl]-N-(cyclopropylmethyl) acetamide] | < 4.40 | – | 5.52 to 6.00 | – |
